Measured values: patent publication US8791143B2, “Anthranilic diamide derivatives having cyclic side-chains” (priority 2010, dated 2014)
Like-named read-outs stand apart in the source and are kept apart here.

Assays:
[1] = log P by HPLC on reversed-phase columns (EEC Directive 79/831 Annex V.A8); type: physicochemical
[2] = tested on: larvae of the mustard beetle (Phaedon cochleariae); assay: Phaedon test (PHAECO spray treatment); conditions: Phaedon cochleariae, 168 h, read-out: activity in % (beetle larvae killed)
[3] = tested on: caterpillars of the armyworm (Spodoptera frugiperda); assay: Spodoptera frugiperda test (SPODFR spray treatment); type: in vivo; conditions: Spodoptera frugiperda, 168 h, read-out: activity in % (caterpillars killed)
[4] = reversed-phase C18 HPLC column, pH 2.7, HPLC reversed-phase C18, acidic range pH 2.7 (HCOOH), only or first value of the cell, read-out: log P
[5] = application rate 100 g/ha, after 7 days

| Structure (SMILES) | chromatographic logP [1, 4] | pest or weed control at 100 g/ha [2] [%] | pest or weed control at 100 g/ha [3, 5] [%] | chromatographic logP ([1]; pH 2.7, log P) | pest or weed control at 100 g/ha [3] [%] |
| --- | --- | --- | --- | --- | --- |
| Cc1cc(Cl)cc(C(=O)NC(C)c2cccc(Cl)c2Cl)c1NC(=O)c1cc(Cn2nnc(C(F)(F)F)n2)nn1-c1ncccc1Cl (stereo not drawn) [Example 124] | 4.57 | 100 | 100 | – | – |
| Cc1c(F)ccc(C(=O)NCc2ccccc2OC(F)(F)F)c1NC(=O)c1cc(Cn2nnc(C(F)(F)F)n2)nn1-c1ncccc1Cl [Example 185] | 4.04 | 100 | 100 | – | – |
| Cc1ccc(Cl)c(C(=O)NCc2ccccc2Cl)c1NC(=O)c1cc(Cn2nnc(C(F)(F)F)n2)nn1-c1ncccc1Cl [Example 196] | – | 100 | – | 3.64 | 100 |
| Cc1cc(Cl)cc(C(=O)NCc2ccc(C(F)(F)F)cc2)c1NC(=O)c1cc(Cn2nnc(C(F)(F)F)n2)nn1-c1ncccc1Cl [Example 96] | 4.21 | 100 | 100 | – | – |
| Cc1cc(C#N)cc(C(=O)NCc2cccc(OC(F)F)c2)c1NC(=O)c1cc(Cn2nnc(C(F)F)n2)nn1-c1ncccc1Cl [Example 178] | 3.08 | 100 | 83 | – | – |
| Cc1cc(Cl)cc(C(=O)NCc2ncc(C(F)(F)F)cc2Cl)c1NC(=O)c1cc(Cn2nnc(C(F)(F)F)n2)nn1-c1ncccc1Cl [Example 230] | 4.23 | 100 | 100 | – | – |
| Cc1cc(Cl)cc(C(=O)NCc2cc(Cl)ccc2Cl)c1NC(=O)c1cc(Cn2nnc(C(F)(F)F)n2)nn1-c1ncccc1Cl [Example 106] | – | 100 | – | 4.39 | 100 |
| Cc1cc(Cl)cc(C(=O)NC(C)c2ccc(Cl)cc2Cl)c1NC(=O)c1cc(Cn2nnc(C(F)(F)F)n2)nn1-c1ncccc1Cl (stereo not drawn) [Example 141] | 4.67 | 100 | 100 | – | – |
| Cc1c(F)ccc(C(=O)NCc2ccc(Cl)cc2)c1NC(=O)c1cc(Cn2nnc(C(F)(F)F)n2)nn1-c1ncccc1Cl [Example 184] | – | 100 | – | 3.8 | 100 |
| O=C(NCc1ccccc1Cl)c1cc(Br)cc(Cl)c1NC(=O)c1cc(Cn2nnc(C(F)(F)F)n2)nn1-c1ncccc1Cl [Example 203] | – | 100 | – | 4.07 | 100 |
| Cc1cc(I)cc(C(=O)NCc2ccccc2OC(F)(F)F)c1NC(=O)c1cc(Cn2nnc(C(F)(F)C(F)(F)F)n2)nn1-c1ncccc1Cl [Example 146] | 4.84 | 100 | 100 | – | – |
| Cc1cc(C#N)cc(C(=O)NCc2ccc3c(c2)OCO3)c1NC(=O)c1cc(Cn2nnc(C(F)(F)F)n2)nn1-c1ccccc1Cl [Example 182] | 3.64 | 100 | 83 | – | – |
| Cc1cc(C#N)cc(C(=O)NCc2ccccc2OC(F)F)c1NC(=O)c1cc(Cn2nnc(C(F)(F)F)n2)nn1-c1ccccc1Cl [Example 190] | 3.88 | 100 | 100 | – | – |
| Cc1cc(Cl)cc(C(=O)NCc2cccc(OC(F)F)c2)c1NC(=O)c1cc(Cn2nnc(C(F)(F)F)n2)nn1-c1ncccc1Cl [Example 159] | 3.95 | 100 | 100 | – | – |
| Cc1cc(Cl)cc(C(=O)NCc2ccccc2Cl)c1NC(=O)c1cc(Cn2nnc(C(F)(F)F)n2)nn1-c1ncccc1Cl [Example 82] | – | 100 | – | 4.06 | 100 |
| Cc1cc(Cl)cc(C(=O)NCc2cccc(OC(F)(F)F)c2)c1NC(=O)c1cc(Cn2nnc(C(F)F)n2)nn1-c1ncccc1Cl [Example 160] | 3.79 | 100 | 100 | – | – |
